In PMC5336394 (Structure (London, England : 1993), 2017):

Test system: CypA
Assay: HA peptide isomerization
Assay type: biochemical
Conditions: Pro2 of the HA peptide

## YPTDVPDYA [HA]
  isomerization at Pro2: not isomerized by CypA
